Where two headings read alike, the source gives them in different places. Square brackets hold non-standard residues; d marks the D form. Peptide text beside a SMILES is read from it. d(hPhe) = N[C@H](CCc1ccccc1)C(=O)O; dPhLac = O=C(O)[C@H](O)Cc1ccccc1

The values below come from PMC6266488, “Synthesis and Evaluation of Spumigin Analogues Library with Thrombin Inhibitory Activity” (Marine Drugs, 2018).

For assay [1], the target named is T1, Trypsin from bovine pancreas (Bos taurus, UniProt P00760).
T1 construct: Trypsin from bovine pancreas; purchased Sigma; host or cells: bovine pancreas
T1 sequence (P00760 24-246): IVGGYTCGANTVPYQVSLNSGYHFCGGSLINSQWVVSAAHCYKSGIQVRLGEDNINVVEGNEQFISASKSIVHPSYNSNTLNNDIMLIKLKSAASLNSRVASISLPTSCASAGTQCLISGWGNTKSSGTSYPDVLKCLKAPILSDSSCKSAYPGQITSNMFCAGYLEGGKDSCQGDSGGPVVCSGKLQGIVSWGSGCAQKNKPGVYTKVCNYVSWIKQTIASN
Put plainly: Enzyme amidolytic assay, trypsin inhibition (chromogenic substrate S-2222). It counts as biochemical. The note with it: for Ki: S-2222 substrate, 25 °C, Cheng and Prusoff. The procedure: (§1) The enzyme amidolytic method for determining inhibition was based on the spectrophotometric determination of absorbance of the product formed after amide bond cleavage of a chromogenic substrate in the presence of the enzyme. Ki, which is a quantitative measure of inhibitor potency, was determined from the kinetics of substrate hydrolysis with and without the addition of the inhibitor. Measurements (spectrophotometer, BioTek Synergy H4, BioTek Instruments, Winooski, VT, USA) were performed in 96-well microtiter plates with a final volume of 200 µL. Thrombin (Thrombin from human plasma, Sigma, Taufkirchen, Germany) was tested at a final concentration of 0.5 NIH E/mL with the substrate S-2238 (H-D-Phenylalanyl-L-pipecolyl-L-arginine-p-nitroaniline dihydrochloride, Chromogenix AB, Mondal, Sweden) at 20 and 40 mM final concentration, and factor Xa (Factor Xa from bovine plasma, Chromogenix) at the final concentration of 1 mBAEE E/mL with the substrate S-2222 (N-Benzoyl-L-isoleucyl-L-glutamyl-glycyl-L-arginine-p-nitroaniline hydrochloride and its methyl ester, Chromogenix) at 100 and 200 mM final concentrations. Trypsin (Trypsin from bovine pancreas, Sigma) was assayed at a final concentration of 0.5 nkat/mL using the substrate S-2222 (Chromogenix) at 50 and 100 mM final concentrations. Inhibitors were dissolved in DMSO (concentration of stock solutions, 10 mmol/L) and diluted with distilled water to concentrations from […]. Reaction rates were measured in the presence and the absence of the inhibitor. Then, 50 µL HBSA buffer, 50 µL solution of each inhibitor concentration (or of HBSA buffer in case of measurement without inhibitor), and 50 µL of enzyme solution were pipetted into the microtiter wells. The plate was incubated for 15 min at 25 °C and then […] of chromogenic substrate was added. Absorbance at 405 nm at 25 °C was measured every 10 s. Measurements were carried out in triplicate with three concentrations of the inhibitor and two concentrations of the substrate. For every combination of concentrations, Ki was calculated from the change of absorbance in the initial, linear part of the curve according to the method of Cheng and Prusoff and the final result was given as their average value.

Assay [2] addresses T2, Factor Xa from bovine plasma (Bos taurus, UniProt P00743).
T2 construct: Factor Xa from bovine plasma; purchased Chromogenix; host or cells: bovine plasma
Description: Enzyme amidolytic assay, factor Xa inhibition (chromogenic substrate S-2222). To be noted: for Ki: S-2222 substrate, 25 °C, Cheng and Prusoff. Type of assay: biochemical. On the procedure:
as §1, with “Thrombin (Thrombin from human plasma, Sigma, Taufkirchen, Germany) was tested at a final concentration of 0.5 NIH E/mL with the substrate S-2238 (H-D-Phenylalanyl-L-pipecolyl-L-arginine-p-nitroaniline dihydrochloride, Chromogenix AB, Mondal, Sweden) at 20 and 40 mM final concentration, and factor Xa (Factor Xa from bovine plasma, Chromogenix) at the final concentration of 1 mBAEE E/mL with the substrate S-2222 (N-Benzoyl-L-isoleucyl-L-glutamyl-glycyl-L-arginine-p-nitroaniline hydrochloride and its methyl ester, Chromogenix) at 100 and 200 mM final concentrations. Trypsin (Trypsin from bovine pancreas, Sigma) was assayed at a final concentration of 0.5 nkat/mL using the substrate S-2222 (Chromogenix) at 50 and 100 mM final concentrations.” left out, “Absorbance at 405 nm at 25 °C was measured every 10 s.” left out

The target in assay [3] is T3, Thrombin from human plasma (Homo sapiens, UniProt P00734).
T3 construct: Thrombin from human plasma; purchased Sigma; host or cells: human plasma
Description: Enzyme amidolytic assay, thrombin inhibition (chromogenic substrate S-2238). It counts as biochemical. The note with it: for Ki: Ki Thrombin, S-2238 substrate, 25 °C, Cheng and Prusoff. On the procedure: as §1

Assay [4] relates to Thrombin. To be noted: read-out: Thrombin Inhibition EC50; cited from earlier work.

T2 sequence (P00743 41-180): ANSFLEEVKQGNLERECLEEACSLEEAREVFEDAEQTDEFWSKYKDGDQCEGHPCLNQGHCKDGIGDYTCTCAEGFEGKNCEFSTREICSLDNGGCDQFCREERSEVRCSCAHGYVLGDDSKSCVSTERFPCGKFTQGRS
T2 sequence (P00743 234-492): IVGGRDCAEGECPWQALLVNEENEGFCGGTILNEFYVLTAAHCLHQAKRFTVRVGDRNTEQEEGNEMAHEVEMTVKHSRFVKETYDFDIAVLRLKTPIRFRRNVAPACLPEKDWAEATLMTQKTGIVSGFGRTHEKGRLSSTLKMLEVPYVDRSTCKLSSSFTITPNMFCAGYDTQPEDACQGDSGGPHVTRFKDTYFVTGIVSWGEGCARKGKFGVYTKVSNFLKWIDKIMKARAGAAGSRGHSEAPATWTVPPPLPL

A word on the Ki: it is the dissociation constant of the complex between target and ligand, obtained from inhibition or displacement. `COC(=O)[C@H](CCCNC(=N)N)NC(=O)[C@H]1Cc2ccccc2N1C(=O)[C@@H](Cc1ccccc1)NC(=O)[C@H](O)Cc1ccccc1` (single isomer, unassigned) [Compound 11a]: the Ki came out at 7.9 ± 3.5 µM in assay [1], 49 ± 4 µM in assay [2] (Ki Factor Xa) and 52 ± 10 µM in assay [3].
Take `N=C(N)NCCC[C@@H](CO)NC(=O)[C@H]1Cc2ccccc2N1C(=O)[C@@H](Cc1ccccc1)NC(=O)[C@H](O)Cc1ccccc1` (single isomer, unassigned) [Compound 11c]: the Ki in assay [1] is 54 ± 1 µM; in assay [2] (read-out: Ki Factor Xa), 54 ± 3 µM; in assay [3] it was 92 ± 20 µM.
Consider `N=C(N)NCCCC(CO)NC(=O)C1Cc2ccccc2N1C(=O)C(CCc1ccccc1)NC(=O)C(O)Cc1ccc(O)cc1` (stereo not drawn) [Compound 11f], for which the Ki in assay [1] stood at 14 ± 1 µM; in assay [2] (read-out: Ki Factor Xa), 76 ± 3 µM; in assay [3] it was 20 ± 3 µM.
On to `COC(=O)[C@H](CCCNC(=N)N)NC(=O)[C@@H]1Cc2ccccc2N1C(=O)[C@@H](CCc1ccccc1)NC(=O)[C@H](O)Cc1ccccc1` (single isomer, unassigned) [Compound 11h], for which the Ki in assay [1] turned out to be 58 ± 17 µM; in assay [2] (read-out: Ki Factor Xa) it was 35 ± 9 µM; in assay [3], 24 ± 8 µM.
On to `COC(=O)[C@H](CCCNC(=N)N)NC(=O)[C@@H]1Cc2ccccc2N1C(=O)[C@@H](Cc1ccccc1)NC(=O)[C@H](O)Cc1ccccc1` (single isomer, unassigned) [Compound 11g], for which the Ki was 126 ± 14 µM in assay [1], 47 ± 8 µM in assay [2] (Ki Factor Xa) and 50 ± 9 µM in assay [3].
Turning to `N=C(N)NCCC[C@H](NC(=O)[C@H]1Cc2ccccc2N1C(=O)[C@@H](Cc1ccccc1)NC(=O)[C@H](O)Cc1ccccc1)C(=O)O` (single isomer, unassigned) [Compound 12g], the Ki in assay [1] is 0.28 ± 0.04 µM; in assay [2] (read-out: Ki Factor Xa) it was 69 ± 1 µM; in assay [3], 98 ± 26 µM.
The matching figures for `N=C(N)NCCC[C@@H](CO)NC(=O)[C@@H]1Cc2ccccc2N1C(=O)[C@@H](CCc1ccccc1)NC(=O)[C@@H](O)Cc1ccc(O)cc1` (mixture of isomers) [Compound 11l]: 62 ± 3 µM, 62 ± 4 µM and 186 ± 48 µM.
For `N=C(N)NCCC[C@@H](CO)NC(=O)[C@@H]1Cc2ccccc2N1C(=O)[C@@H](CCc1ccccc1)NC(=O)[C@H](O)Cc1ccccc1` (single isomer, unassigned) [Compound 11j], the values for the Ki in assay [1], in assay [2] (Ki Factor Xa) and in assay [3] were 693 ± 159 µM, 41 ± 9 µM and 187 ± 79 µM, respectively.
As for `COC(=O)C(CCCNC(=N)N)NC(=O)C1CCCN1C(=O)C(CCc1ccccc1)NC(=O)C(O)Cc1ccc(O)cc1` [Compound 21b, Methyl ((R)-2-((R,S)-2-hydroxy-3-(4-hydroxyphenyl)propanamido)-4-phenylbutanoyl)-D-prolyl-D-argininate], the Ki stood at 0.92 ± 0.08 µM in assay [1], 29 ± 5 µM in assay [2] (read-out: Ki Factor Xa) and 3.9 ± 0.4 µM in assay [3].
By EC50 is commonly meant the concentration at which the effect is half-maximal. For `C[C@H]1C[C@@H](C(=O)N[C@H](CO)CCCN=C(N)N)N(C(=O)[C@@H](CCc2ccc(O)cc2)NC(=O)[C@H](O)Cc2ccc(O)cc2)C1` (racemic) [spumigin A (racemate), spumigin A], the EC50 in assay [4] was 7.5 µM.
Regarding `N=C(N)NCCC[C@@H](CO)NC(=O)[C@H]1Cc2ccccc2N1C(=O)[C@@H](CCc1ccccc1)NC(=O)[C@H](O)Cc1ccccc1` (single isomer, unassigned) [Compound 11d], the Ki was 29 ± 2 µM in assay [1], 47 ± 6 µM in assay [2] (Ki Factor Xa) and 11 ± 4 µM in assay [3].
`COC(=O)[C@H](CCCNC(=N)N)NC(=O)[C@@H]1Cc2ccccc2N1C(=O)[C@@H](CC(C)C)NC(=O)[C@H](O)Cc1ccccc1` (single isomer, unassigned) [Compound 29a]: the Ki was 4.8 ± 0.7 µM in assay [1], 30 ± 2 µM in assay [2] (read-out: Ki Factor Xa) and 5.6 ± 0.3 µM in assay [3].
The matching figures for `N=C(N)NCCC[C@@H](CO)NC(=O)[C@@H]1Cc2ccccc2N1C(=O)[C@@H](Cc1ccccc1)NC(=O)[C@H](O)Cc1ccccc1` (single isomer, unassigned) [Compound 11i]: 50 ± 3 µM, 51 ± 4 µM and 170 ± 58 µM.
The matching figures for `COC(=O)C(CCCNC(=N)N)NC(=O)C1Cc2ccccc2N1C(=O)C(CCc1ccccc1)NC(=O)C(O)Cc1ccc(O)cc1` (mixture of isomers) [Compound 11k]: 72 ± 6 µM, 57 ± 8 µM and 34 ± 10 µM.
Turning to `C[C@H]1C[C@@H](C(=O)N[C@H](CO)CCCN=C(N)N)N(C(=O)[C@@H](CCc2ccc(O)cc2)NC(=O)[C@H](O)Cc2ccc(O)cc2)C1` [spumigin A], the EC50 in assay [4] is 2.1 µM.
As usually defined, the IC50 is the concentration needed to halve the response being measured. For `COC(=O)[C@@H](CCCNC(=N)N)NC(=O)[C@H]1CCCN1C(=O)[C@@H](CCc1ccccc1)NC(=O)[C@H](O)Cc1ccccc1` [Compound 21a, Methyl ((R)-2-((R)-2-hydroxy-3-phenylpropanamido)-4-phenylbutanoyl)-D-prolyl-D-argininate] (H-[dPhLac][d(hPhe)][dP][dR]-OMe), the Ki in assay [1] came to 1.4 ± 0.2 µM; in assay [2] (read-out: Ki Factor Xa) it was 18 ± 4 µM; in assay [3], 3.8 ± 0.4 µM. Further, the half-inhibitory concentration (IC50) was 4.2 µM in assay [1] (in brackets in Ki Trypsin column), 29 µM in assay [2] (in brackets in Ki Factor Xa column) and 33 µM in assay [3].
As for `C[C@H]1C[C@@H](C(=O)N(C)[C@H](CCCCN)C(=O)O)N(C(=O)[C@@H](CCc2ccc(O)cc2)NC(=O)[C@H](O)Cc2ccc(O)cc2)C1` [spumigin J], the EC50 in assay [4] was 4.9 µM.
In the case of `COC(=O)[C@H](CCCNC(=N)N)NC(=O)[C@H]1Cc2ccccc2N1C(=O)[C@@H](CC(C)C)NC(=O)[C@H](O)Cc1ccccc1` (single isomer, unassigned) [Compound 29b], the Ki in assay [1] came out at 134 ± 42 µM; in assay [2] (read-out: Ki Factor Xa), 65 ± 2 µM; in assay [3], 129 ± 13 µM.
For the molecule `COC(=O)C(CCCNC(=N)N)NC(=O)C1Cc2ccccc2N1C(=O)C(CCc1ccccc1)NC(=O)C(O)Cc1ccc(O)cc1` (mixture of isomers) [Compound 11e], the Ki worked out at 3.9 ± 0.3 µM in assay [1], 48 ± 5 µM in assay [2] (read-out: Ki Factor Xa) and 30 ± 12 µM in assay [3].
In the case of `COC(=O)[C@H](CCCNC(=N)N)NC(=O)[C@H]1Cc2ccccc2N1C(=O)[C@@H](CCc1ccccc1)NC(=O)[C@H](O)Cc1ccccc1` (single isomer, unassigned) [Compound 11b], the figures for the Ki in assay [1], in assay [2] (read-out: Ki Factor Xa) and in assay [3] were 2.8 ± 0.4 µM, 39 ± 6 µM and 44 ± 7 µM, respectively.
